# Measured values reported in ChEMBL document CHEMBL2311510, “A new single-photon emission computed tomography (SPECT) imaging agent for serotonin transporters: [(125)I]Flip-IDAM, (2-((2-((dimethylamino)methyl)-4-iodophenyl)thio)phenyl)methanol” (Bioorg Med Chem Lett, 2013).
# How the values were obtained:
# Assay type in all cases: ADME, organism-based
# Lung [1] = test: Biodistribution in Sprague-Dawley rat lung assessed as compound level per organ at 11 uCi, iv measured 2 mins post compound dose; details: in vivo
# Nucleic Acid [2] = test: Ratio of drug level in hypothalamus to cerebellum in Sprague-Dawley rat at 11 uCi, iv measured 120 mins post compound dose; details: in vivo, 2 h
# Nucleic Acid [3] = test: Ratio of drug level in cortex to cerebellum in Sprague-Dawley rat at 11 uCi, iv measured 120 mins post compound dose; details: in vivo, 2 h
# Nucleic Acid [4] = test: Ratio of drug level in striatum to cerebellum in Sprague-Dawley rat at 11 uCi, iv measured 120 mins post compound dose; details: in vivo, 2 h
# Nucleic Acid [5] = test: Ratio of drug level in hippocampus to cerebellum in Sprague-Dawley rat at 11 uCi, iv measured 60 mins post compound dose; details: in vivo, 1 h
# Nucleic Acid [6] = test: Ratio of drug level in hippocampus to cerebellum in Sprague-Dawley rat at 11 uCi, iv measured 30 mins post compound dose; details: in vivo, 0.5 h
# Nucleic Acid [7] = test: Ratio of drug level in striatum to cerebellum in Sprague-Dawley rat at 11 uCi, iv measured 2 mins post compound dose; details: in vivo
# Brain [8] = test: Biodistribution in Sprague-Dawley rat rest of brain at 11 uCi, iv measured 120 mins post compound dose; details: in vivo, 2 h
# Cortex [9] = test: Biodistribution in Sprague-Dawley rat cortex at 11 uCi, iv measured 120 mins post compound dose; details: in vivo, 2 h
# Striatum [10] = test: Biodistribution in Sprague-Dawley rat striatum at 11 uCi, iv measured 120 mins post compound dose; details: in vivo, 2 h
# Cortex [11] = test: Biodistribution in Sprague-Dawley rat cortex at 11 uCi, iv measured 60 mins post compound dose; details: in vivo, 1 h
# Cortex [12] = test: Biodistribution in Sprague-Dawley rat cortex at 11 uCi, iv measured 30 mins post compound dose; details: in vivo, 0.5 h
# Hippocampus = test: Biodistribution in Sprague-Dawley rat hippocampus at 11 uCi, iv measured 30 mins post compound dose; details: in vivo, 0.5 h
# Hypothalamus = test: Biodistribution in Sprague-Dawley rat hypothalamus at 11 uCi, iv measured 2 mins post compound dose; details: in vivo
# Brain [13] = test: Biodistribution in Sprague-Dawley rat rest of brain at 11 uCi, iv measured 2 mins post compound dose; details: in vivo
# Cortex [14] = test: Biodistribution in Sprague-Dawley rat cortex at 11 uCi, iv measured 2 mins post compound dose; details: in vivo
# Striatum [15] = test: Biodistribution in Sprague-Dawley rat striatum at 11 uCi, iv measured 2 mins post compound dose; details: in vivo
# Brain [16] = test: Biodistribution in Sprague-Dawley rat brain at 11 uCi, iv measured 120 mins post compound dose; details: in vivo, 2 h
# Zone of skin [17] = test: Biodistribution in Sprague-Dawley rat skin at 11 uCi, iv measured 120 mins post compound dose; details: in vivo, 2 h
# Kidney [18] = test: Biodistribution in Sprague-Dawley rat kidney at 11 uCi, iv measured 120 mins post compound dose; details: in vivo, 2 h
# Heart [19] = test: Biodistribution in Sprague-Dawley rat heart at 11 uCi, iv measured 120 mins post compound dose; details: in vivo, 2 h
# Brain [20] = test: Biodistribution in Sprague-Dawley rat brain at 11 uCi, iv measured 60 mins post compound dose; details: in vivo, 1 h
# Blood [21] = test: Biodistribution in Sprague-Dawley rat blood assessed as compound level per organ at 11 uCi, iv measured 2 mins post compound dose; details: in vivo
# Liver [22] = test: Biodistribution in Sprague-Dawley rat liver at 11 uCi, iv measured 60 mins post compound dose; details: in vivo, 1 h
# Spleen [23] = test: Biodistribution in Sprague-Dawley rat spleen at 11 uCi, iv measured 60 mins post compound dose; details: in vivo, 1 h
# Kidney [24] = test: Biodistribution in Sprague-Dawley rat kidney at 11 uCi, iv measured 60 mins post compound dose; details: in vivo, 1 h
# Muscle tissue [25] = test: Biodistribution in Sprague-Dawley rat muscle at 11 uCi, iv measured 60 mins post compound dose; details: in vivo, 1 h
# Heart [26] = test: Biodistribution in Sprague-Dawley rat heart at 11 uCi, iv measured 60 mins post compound dose; details: in vivo, 1 h
# Blood [27] = test: Biodistribution in Sprague-Dawley rat blood at 11 uCi, iv measured 60 mins post compound dose; details: in vivo, 1 h
# Brain [28] = test: Biodistribution in Sprague-Dawley rat brain at 11 uCi, iv measured 30 mins post compound dose; details: in vivo, 0.5 h
# Liver [29] = test: Biodistribution in Sprague-Dawley rat liver at 11 uCi, iv measured 30 mins post compound dose; details: in vivo, 0.5 h
# Muscle tissue [30] = test: Biodistribution in Sprague-Dawley rat muscle at 11 uCi, iv measured 30 mins post compound dose; details: in vivo, 0.5 h
# Blood [31] = test: Biodistribution in Sprague-Dawley rat blood at 11 uCi, iv measured 30 mins post compound dose; details: in vivo, 0.5 h
# Lung [32] = test: Biodistribution in Sprague-Dawley rat lung at 11 uCi, iv measured 2 mins post compound dose; details: in vivo
# Blood [33] = test: Biodistribution in Sprague-Dawley rat blood at 11 uCi, iv measured 2 mins post compound dose; details: in vivo
# Zone of skin [34] = test: Biodistribution in Sprague-Dawley rat skin assessed as compound level per organ at 11 uCi, iv measured 120 mins post compound dose; details: in vivo, 2 h
# Spleen [35] = test: Biodistribution in Sprague-Dawley rat spleen assessed as compound level per organ at 11 uCi, iv measured 120 mins post compound dose; details: in vivo, 2 h
# Pancreas [36] = test: Biodistribution in Sprague-Dawley rat pancreas assessed as compound level per organ at 11 uCi, iv measured 120 mins post compound dose; details: in vivo, 2 h
# Kidney [37] = test: Biodistribution in Sprague-Dawley rat kidney assessed as compound level per organ at 11 uCi, iv measured 120 mins post compound dose; details: in vivo, 2 h
# Lung [38] = test: Biodistribution in Sprague-Dawley rat lung assessed as compound level per organ at 11 uCi, iv measured 120 mins post compound dose; details: in vivo, 2 h
# Muscle tissue [39] = test: Biodistribution in Sprague-Dawley rat muscle assessed as compound level per organ at 11 uCi, iv measured 120 mins post compound dose; details: in vivo, 2 h
# Kidney [40] = test: Biodistribution in Sprague-Dawley rat kidney assessed as compound level per organ at 11 uCi, iv measured 60 mins post compound dose; details: in vivo, 1 h
# Lung [41] = test: Biodistribution in Sprague-Dawley rat lung assessed as compound level per organ at 11 uCi, iv measured 60 mins post compound dose; details: in vivo, 1 h
# Heart [42] = test: Biodistribution in Sprague-Dawley rat heart assessed as compound level per organ at 11 uCi, iv measured 60 mins post compound dose; details: in vivo, 1 h
# Muscle tissue [43] = test: Biodistribution in Sprague-Dawley rat muscle assessed as compound level per organ at 11 uCi, iv measured 60 mins post compound dose; details: in vivo, 1 h
# Blood [44] = test: Biodistribution in Sprague-Dawley rat blood assessed as compound level per organ at 11 uCi, iv measured 60 mins post compound dose; details: in vivo, 1 h
# Brain [45] = test: Biodistribution in Sprague-Dawley rat brain assessed as compound level per organ at 11 uCi, iv measured 30 mins post compound dose; details: in vivo, 0.5 h
# Zone of skin [46] = test: Biodistribution in Sprague-Dawley rat skin assessed as compound level per organ at 11 uCi, iv measured 30 mins post compound dose; details: in vivo, 0.5 h
# Pancreas [47] = test: Biodistribution in Sprague-Dawley rat pancreas assessed as compound level per organ at 11 uCi, iv measured 30 mins post compound dose; details: in vivo, 0.5 h
# Lung [48] = test: Biodistribution in Sprague-Dawley rat lung assessed as compound level per organ at 11 uCi, iv measured 30 mins post compound dose; details: in vivo, 0.5 h
# Heart [49] = test: Biodistribution in Sprague-Dawley rat heart assessed as compound level per organ at 11 uCi, iv measured 30 mins post compound dose; details: in vivo, 0.5 h
smiles,measurement,setting,value
CN(C)Cc1cc([125I])ccc1Sc1ccccc1CO,Drug uptake,Lung [1],6.52 %ID
same,Ratio,Nucleic Acid [2],1.93
same,Ratio,Nucleic Acid [3],1.24
same,Ratio,Nucleic Acid [4],1.89
same,Ratio,Nucleic Acid [5],1.83
same,Ratio,Nucleic Acid [6],2.67
same,Ratio,Nucleic Acid [7],0.84
same,Drug uptake,Brain [8],0.06 % ID/g
same,Drug uptake,Cortex [9],0.06 % ID/g
same,Drug uptake,Striatum [10],0.1 % ID/g
same,Drug uptake,Cortex [11],0.2 % ID/g
same,Drug uptake,Cortex [12],0.21 % ID/g
same,Drug uptake,Hippocampus,0.66 % ID/g
same,Drug uptake,Hypothalamus,1.54 % ID/g
same,Drug uptake,Brain [13],1.14 % ID/g
same,Drug uptake,Cortex [14],1.39 % ID/g
same,Drug uptake,Striatum [15],1.28 % ID/g
same,Drug uptake,Brain [16],0.06 % ID/g
same,Drug uptake,Zone of skin [17],0.13 % ID/g
same,Drug uptake,Kidney [18],0.57 % ID/g
same,Drug uptake,Heart [19],0.14 % ID/g
same,Drug uptake,Brain [20],0.14 % ID/g
same,Drug uptake,Blood [21],6.43 %ID
same,Drug uptake,Liver [22],0.48 % ID/g
same,Drug uptake,Spleen [23],0.22 % ID/g
same,Drug uptake,Kidney [24],0.72 % ID/g
same,Drug uptake,Muscle tissue [25],0.13 % ID/g
same,Drug uptake,Heart [26],0.17 % ID/g
same,Drug uptake,Blood [27],0.22 % ID/g
same,Drug uptake,Brain [28],0.53 % ID/g
same,Drug uptake,Liver [29],1.28 % ID/g
same,Drug uptake,Muscle tissue [30],0.21 % ID/g
same,Drug uptake,Blood [31],0.36 % ID/g
same,Drug uptake,Lung [32],3.23 % ID/g
same,Drug uptake,Blood [33],0.44 % ID/g
same,Drug uptake,Zone of skin [34],4.07 %ID
same,Drug uptake,Spleen [35],0.07 %ID
same,Drug uptake,Pancreas [36],0.06 %ID
same,Drug uptake,Kidney [37],1.06 %ID
same,Drug uptake,Lung [38],0.41 %ID
same,Drug uptake,Muscle tissue [39],5.45 %ID
same,Drug uptake,Kidney [40],1.44 %ID
same,Drug uptake,Lung [41],0.73 %ID
same,Drug uptake,Heart [42],0.15 %ID
same,Drug uptake,Muscle tissue [43],11 %ID
same,Drug uptake,Blood [44],3.26 %ID
same,Drug uptake,Brain [45],1.13 %ID
same,Drug uptake,Zone of skin [46],9.38 %ID
same,Drug uptake,Pancreas [47],0.26 %ID
same,Drug uptake,Lung [48],1.5 %ID
same,Drug uptake,Heart [49],0.28 %ID
